According to ChEMBL document CHEMBL2424568, “Phenylpyrazolo[1,5-a]quinazolin-5(4H)-one: a suitable scaffold for the development of noncamptothecin topoisomerase I (Top1) inhibitors” (J Med Chem, 2013):
The source made the active and inactive calls. No cut-off for these calls is given here.

Legend:
[1] = biological target: T1, DNA topoisomerase 1 (Homo sapiens) (UniProt P11387); assay: Inhibition of recombinant DNA topoisomerase 1 (unknown origin) assessed as inhibition of topoisomerase 1-mediated DNA cleavage at 1 to 100 uM after 20 mins by SDS-PAGE analysis relative to control
T1 sequence (whole entry): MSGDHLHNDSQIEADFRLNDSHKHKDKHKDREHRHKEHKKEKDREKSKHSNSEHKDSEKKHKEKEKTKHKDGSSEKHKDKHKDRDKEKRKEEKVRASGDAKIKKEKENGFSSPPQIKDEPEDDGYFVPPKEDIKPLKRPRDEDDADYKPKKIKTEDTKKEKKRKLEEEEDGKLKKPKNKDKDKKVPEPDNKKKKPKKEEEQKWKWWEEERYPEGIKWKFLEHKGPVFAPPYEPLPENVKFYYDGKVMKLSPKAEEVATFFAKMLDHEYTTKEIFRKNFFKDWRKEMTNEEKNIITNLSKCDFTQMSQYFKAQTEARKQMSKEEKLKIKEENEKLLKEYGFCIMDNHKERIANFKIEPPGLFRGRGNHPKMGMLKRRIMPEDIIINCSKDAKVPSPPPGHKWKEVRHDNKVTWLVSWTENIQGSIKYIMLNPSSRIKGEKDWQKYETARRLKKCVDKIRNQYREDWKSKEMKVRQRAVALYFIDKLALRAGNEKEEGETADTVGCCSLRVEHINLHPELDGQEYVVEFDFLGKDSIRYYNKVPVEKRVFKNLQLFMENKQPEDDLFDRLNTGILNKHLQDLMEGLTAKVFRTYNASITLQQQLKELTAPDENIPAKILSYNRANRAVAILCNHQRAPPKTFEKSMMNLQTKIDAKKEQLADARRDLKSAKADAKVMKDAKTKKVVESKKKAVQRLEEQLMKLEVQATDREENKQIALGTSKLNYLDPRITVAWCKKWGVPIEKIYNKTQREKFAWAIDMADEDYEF

[2] = biological target: T1, DNA topoisomerase 1 (Homo sapiens); assay: Inhibition of recombinant DNA topoisomerase 1 (unknown origin) assessed as inhibition of topoisomerase 1-mediated DNA cleavage at 1 uM after 20 mins by SDS-PAGE analysis

Row | Top1 cleavage inhibition (active/inactive) [1] | Top1 DNA cleavage inhibition (active/not active) [2] | SMILES
1 | inactive |  | CN(C)CCCOc1nc2cc(-c3ccccc3)nn2c2ccccc12
2 | Active |  | CN(C)CCOc1nc2c(-c3ccccc3)cnn2c2ccccc12
3 | inactive | inactive | Clc1ccc(-c2cnn3c2nc(NCCCc2ncc[nH]2)c2ccccc23)cc1
4 | Active |  | c1ccc(-c2cnn3c2nc(NCCCc2ncc[nH]2)c2ccccc23)cc1
5 | Active |  | CCN(CC)CCNc1nc2c(-c3ccc(OC)cc3)cnn2c2ccccc12
6 | Active |  | COc1ccc(-c2cnn3c2nc(OCCCN(C)C)c2ccccc23)cc1
7 | Active |  | CN(C)CCNc1nc2c(-c3ccc(Cl)cc3)cnn2c2ccccc12
8 | inactive |  | O=c1c2ccccc2n2nc(-c3ccccc3)cc2n1CCCc1ncc[nH]1
9 | Active |  | CN(C)CCCNc1nc2c(-c3ccc(C(F)(F)F)cc3)cnn2c2ccccc12
10 | Active |  | CN(C)CCNc1nc2c(-c3ccc(C(F)(F)F)cc3)cnn2c2ccccc12
11 | Active |  | CN(C)CCn1c(=O)c2ccccc2n2nc(-c3ccccc3)cc12
12 | Active |  | CN(C)CCOc1nc2c(-c3ccc(Cl)cc3)cnn2c2ccccc12
13 | Active |  | CN(C)CCOc1nc2c(-c3ccc(C(F)(F)F)cc3)cnn2c2ccccc12
14 | inactive |  | c1ccc(-c2cc3nc(NCCCc4ncc[nH]4)c4ccccc4n3n2)cc1
15 | Active |  | COc1ccc(-c2cnn3c2nc(OCCN(C)C)c2ccccc23)cc1
16 | Active |  | COc1ccc(-c2cnn3c2nc(NCCN(C)C)c2ccccc23)cc1
17 | inactive | inactive | CN(C)CCCn1c(=O)c2ccccc2n2nc(-c3ccccc3)cc12
18 | inactive |  | FC(F)(F)c1ccc(-c2cnn3c2nc(NCCCc2ncc[nH]2)c2ccccc23)cc1

Row | Top1 cleavage inhibition (active/inactive) [1] | Top1 DNA cleavage inhibition (active/not active) [2] | SMILES
19 | Active |  | CN(C)CCCOc1nc2c(-c3ccccc3)cnn2c2ccccc12
20 | Active |  | CCN(CC)CCOc1nc2cc(-c3ccccc3)nn2c2ccccc12
21 | inactive | inactive | CN(C)CCCOc1nc2c(-c3ccc(C(F)(F)F)cc3)cnn2c2ccccc12
22 | Active | inactive | CCN(CC)CCOc1nc2c(-c3ccc(Cl)cc3)cnn2c2ccccc12
23 | Active |  | CN(C)CCCOc1nc2c(-c3ccc(Cl)cc3)cnn2c2ccccc12
24 | Active |  | CCN(CC)CCNc1nc2c(-c3ccc(Cl)cc3)cnn2c2ccccc12
25 |  | Active | COc1cc2c3c(n(CCCNCCO)c(=O)c2cc1OC)-c1cc2c(cc1C3=O)OCO2
26 | inactive |  | COc1ccc(-c2cnn3c2nc(NCCCc2ncc[nH]2)c2ccccc23)cc1
27 | Active |  | CCN(CC)CCNc1nc2c(-c3ccccc3)cnn2c2ccccc12
28 | Active |  | COc1ccc(-c2cnn3c2nc(NCCCN(C)C)c2ccccc23)cc1
29 | Active |  | CN(C)CCOc1nc2cc(-c3ccccc3)nn2c2ccccc12
30 | Active |  | CCN(CC)CCNc1nc2c(-c3ccc(C(F)(F)F)cc3)cnn2c2ccccc12
31 | Active |  | CCN(CC)CCOc1nc2c(-c3ccccc3)cnn2c2ccccc12
32 | inactive |  | CCN(CC)CCOc1nc2c(-c3ccc(C(F)(F)F)cc3)cnn2c2ccccc12
33 | Active |  | CN(C)CCCNc1nc2c(-c3ccc(Cl)cc3)cnn2c2ccccc12
34 | Active |  | CCN(CC)CCOc1nc2c(-c3ccc(OC)cc3)cnn2c2ccccc12
35 | inactive |  | CCN(CC)CCNc1nc2cc(-c3ccccc3)nn2c2ccccc12
